Reference: patent publication US10307410B2, “Mcl-1 modulating compounds for cancer treatment” (CENTRE REGIONAL DE LUTTE CONTRE LE CANCER FRANCOIS BACLESSE, priority 2014, dated 2019)

Assays:
Format in all cases: cell-based
[1] = test system: IGROV1-R10 ovarian cancer cells; assay: PARP and caspase 3 cleavage by western blot; parameters: key to PARP cleavage: +: a little band corresponding to the 85 kDa cleaved form of PARP is observable on the western blot; ++: a band corresponding to the 85 kDa cleaved form of PARP is clearly observable on the western blot; +++: PARP in nearly completely cleaved; conditions: Molecule + Bcl-xL targeting siRNA
Experimental: (§1) Exponentially growing cells were transfected by siRNA as described below, and after 48 h, cells were continuously exposed to (Het)aromatic oligosystems (10, 25 or 50 μM) dissolved in DMSO (<0.1% of total volume) for 4 to 24 supplementary hours.
(§2) Cells were seeded in 25 cm^2 flasks the day before to reach 30-50% confluency at the time of transfection. The transfection INTERFERin™ reagent (Polyplus Transfection, Strasbourg. France) was added to siRNA diluted in Opti-MEM® reduced serum medium (Invitrogen, Cergy-Pontoise, France) and complexes formation was allowed to proceed for 15 min at RT before being applied to cells. The final siRNA concentration in the flasks was 20 nM.
Cells were rinsed with ice-cold PBS, suspended in a lysis buffer [RIPA:NaCl 150 mM, Tris (pH 8) 50 mM, Triton X100 1%, PMSF 4 mM, EDTA 5 mM, NaF 10 mM, NaPPi 10 mM, Na3OV4 1 mM, aprotinin 0.5 μl/ml and 4.6 ml ultra pure water] and incubated on ice for 30 minutes. Lysates were collected after centrifugation (13200 g, 10 min, 4° C.) and protein concentrations were determined using the Bradford assay (Bio-Rad, Hercules, USA). 20 μg of protein were separated by SDS-PAGE on a 4-12% gradient polyacrylamide gel (Invitrogen, Cergy-Pontoise, France) and transferred to Hybond-PVDF membranes (Amersham, Orsay, France). After blocking non-specific binding sites for 1 hour at RT by 5% (w/v) non-fat dry milk in TBS with 0.1% (v/v) Tween20 (T-TBS), the membranes were incubated overnight at 4° C. with the following rabbit monoclonal antibody: PARP, caspase-3 and Bcl-xL, Bim (Cell Signaling Technology, Ozyme, Saint-Quentin-en-Yvelines, France), Mcl-1 (Santa Cruz, Le Perray-en-Yvelines, France), HSP-70, Noxa (Calbiochem, Fontenay-sous-Bois, France), (Cell Signalling) and Actin (Sigma-Aldrich, Saint-Quentin Fallavier, France). Membranes were then washed with T-TBS and incubated for 1 hour with the appropriate horseradish peroxidase-conjugated anti-rabbit or anti-mouse (Amersham, Orsay, France) secondary antibodies. Revelation was done using a luminescent Image Analyzer (GE Healthcare, Orsay, France).

[2] = test system: IGROV1-R10 ovarian cancer cells; assay: DNA content histograms (sub-G1) by flow cytometry; conditions: Molecule + Bcl-xL targeting siRNA
Experimental: as §1
as §2, with “The final siRNA concentration in the flasks was 20 nM.” left out
Adherent and floating cells were pooled, washed with 1×PBS and centrifuged at 200 g for 5 min before staining by Annexin V, propidium iodide or both, as recommended by the manufacturer (Roche Diagnostic, Indianapolis, USA). Briefly, 100 μl of Annexin V—Flit or propidium iodide or both were added on the cells pellet (10^6 cells) and incubated 15 minutes at room temperature in obscurity. 500 μl of sample buffer was then added on the suspensions that were thereafter analyzed using a Gallios flow cytometer (Beckman Coulter, Roissy, France) and cell cycle distribution was determined using Kaluza acquisition software (Beckman Coulter).

[3] = test system: IGROV1-R10 ovarian cancer cells; assay: Nuclear morphology after DAPI staining; parameters: key to Apoptotic nuclear features: +: a few condensed or fragmented nuclei are observable after DAPI staining; ++: numerous condensed or fragmented nuclei are observable after DAPI staining (20-50%); +++: most of the nuclei are condensed or fragmented; conditions: Molecule + Bcl-xL targeting siRNA, DAPI staining
Experimental: as §1, §2
After treatment, both detached and adherent cells were pooled after trypsinization, applied to a polylysine-coated glass slide by cytocentrifugation and fixed with a solution of ethanol/chloroform/acetic acid (6:3:1). The preparations were then incubated for 15 min at room temperature with 1 μg/ml DAPI solution (Boehringer Mannheim-Roche, Mannheim, Germany), washed in distillated water, mounted under a coverslip in Mowiol (Calbiochem) and analyzed under a fluorescence microscope (BX51, Olympus, Rungis, France).
Cells were fixed with 2.5% glutaraldehyde in PBS buffer, included in agar, rinsed in Sorensen's buffer, post-fixed in osmium tetroxide 1% in Sorensen's buffer, deshydrated in ethanol and embedded in EPON resin. Ultrathin sections were cut and stained with uranyl acetate and lead citrate and examined using a JEOL1011 transmission electron microscope.

[4] = test system: IGROV1-R10 ovarian cancer cells; assay: Cellular morphology / cell detachment, molecule alone or with Bcl-xL targeting siRNA; conditions: Molecule + Bcl-xL targeting siRNA
Experimental: as §1, §2

| Structure (SMILES) | PARP cleavage [1] | Sub-G1 (%) [2] | Apoptotic nuclear features [3] | Cell detachment [4] |
| --- | --- | --- | --- | --- |
| Cc1cc(-c2ncc(-c3ccccc3)cc2/C=C/c2ccccc2)cnc1-c1ccccc1 [compound 30814, 3-methyl-2-phenyl-5-(5-phenyl-3-styrylpyridin-2-yl)pyridine] | + | 37.2% | + | – |
| COc1ccc(-c2cnc(-c3cnc(-c4ccc(OC)c(OC)c4)c(C)c3)c(/C=C/c3ccccc3)c2)cc1OC [compound 30846, 2-(3,4-dimethoxyphenyl)-5-(5-(3,4-dimethoxyphenyl)-3-styrylpyridin-2-yl)-3-methylpyridine] | – | 33.1% | + | – |
| COc1cc(-c2cnc(-c3cnc(-c4cc(OC)c(OC)c(OC)c4)c(C)c3)c(/C=C/c3ccccc3)c2)cc(OC)c1OC [compound 30847, 5-(3,4,5-trimethoxyphenyl)-2-(6-(3,4,5-trimethoxyphenyl)-5-methylpyridin-3-yl)-3-styrylpyridine] | – | 22% | + | ± (very few cells were detached from the support (less than 10%)) |
| COc1ccc(-c2cnc(-c3cnc(-c4cc(OC)c(OC)c(OC)c4)c(C)c3)c(/C=C/c3ccccc3)c2)cc1OC [compound 30849, 5-(3,4-dimethoxyphenyl)-2-(6-(3,4,5-trimethoxyphenyl)-5-methylpyridin-3-yl)-3-styrylpyridine] | – | 19.9% | + | – |
| COc1ccc(-c2ncc(-c3ncc(-c4cc(OC)c(OC)c(OC)c4)cc3/C=C/c3ccccc3)cc2C)cc1OC [compound 30850, 5-(3,4,5-trimethoxyphenyl)-2-(6-(3,4-dimethoxyphenyl)-5-methylpyridin-3-yl)-3-styrylpyridine] | – | 20.2% | + | – |
| Cc1cc(-c2ncc(-c3ccc(C#N)cc3)cc2/C=C/c2ccccc2)cnc1-c1ccc(C#N)cc1 [compound 30854, 3-methyl-2-(4-cyanophenyl)-5-(5-(4-cyanophenyl)-3-styrylpyridin-2-yl)pyridine] | – | 24.3% | + | ± (very few cells were detached from the support (less than 10%)) |
| Cc1cc(-c2ncc(-c3sccc3C)cc2/C=C/c2ccccc2)cnc1-c1sccc1C [compound 31336, 3-methyl-2-(3-methylthiophen-2-yl)-5-(5-(3-methylthiophen-2-yl)-3-(E)-styrylpyridin-2-yl)pyridine] | – | 48.8% | ++ (numerous condensed or fragmented nuclei are observable after DAPI staining (20-50%)) | – |
| Cc1cc(-c2ncc(-c3ccccc3)cc2/C=C/c2ccccc2)cnc1-c1cccnc1 [compound 31348, 3-methyl-5-(5-phenyl-3-styrylpyridin-2-yl)-2-(pyridin-3-yl)pyridine] | +++ | 58.8% | +++ | – |
| Cc1cc(-c2ncc(-c3cccnc3)cc2/C=C/c2ccccc2)cnc1-c1ccccc1 [compound 31349, 3-(6-(5-methyl-6-phenylpyridin-3-yl)-5-styrylpyridin-3-yl)pyridine] | +++ | 59.2% | +++ | – |
| Cc1cc(-c2ncc(-c3cnc(Cl)n3C)cc2/C=C/c2ccccc2)cnc1-c1cnc(Cl)n1C [compound 31351, 5-(2-chloro-1-methyl-1H-imidazol-5-yl)-2-(6-(2-chloro-1-methyl-1H-imidazol-5-yl)-5-methylpyridin-3-yl)-3-styrylpyridine] | – | 56.7% | +++ | – |
| Cc1cc(-c2ncc(-c3cncnc3)cc2/C=C/c2ccccc2)cnc1-c1cncnc1 [compound 31361, 5-(3-methyl-5-(5-(pyrimidin-5-yl)-3-styrylpyridin-2-yl)pyridin-2-yl)pyrimidine] | – | 35.2% | ++ (numerous condensed or fragmented nuclei are observable after DAPI staining (20-50%)) | – |
| Cc1cc(-c2ncc(-c3ccn[nH]3)cc2/C=C/c2ccccc2)cnc1-c1ccn[nH]1 [compound 31363, 2-(5-methyl-6-(1H-pyrazol-5-yl)pyridin-3-yl)-5-(1H-pyrazol-5-yl)-3-styrylpyridine] | – | 63.7% | +++ | – |
| Cc1cc(-c2ncc(-c3cccnc3)cc2/C=C/c2ccccc2)cnc1-c1cccc(O)c1 [compound 31364, 3-(3-methyl-5-(5-(pyridin-3-yl)-3-styrylpyridin-2-yl)pyridin-2-yl)phenol] | – | 39.6% | ++ (numerous condensed or fragmented nuclei are observable after DAPI staining (20-50%)) | – |
| Cc1cc(-c2ncc(-c3cccnc3)cc2/C=C/c2ccccc2)cnc1-c1cccc(C/C(N)=N/O)c1 [compound 31367, (1Z)—N′-hydroxy-2-(3-(3-methyl-5-(5-(pyridin-3-yl)-3-styrylpyridin-2-yl)pyridin-2-yl)phenyl)acetamidine] | – | 52.7% | +++ | – |
